The record followed here is patent publication US11072617B2, “Bicyclic sulfones and sulfoxides and methods of use thereof” (Genentech, Inc., priority 2017, dated 2021).

SMILES strings stand for the structures. Bounds are passed on as bounds.

Chain of human RIP1 kinase domain (2-375) (Q13546 2-375): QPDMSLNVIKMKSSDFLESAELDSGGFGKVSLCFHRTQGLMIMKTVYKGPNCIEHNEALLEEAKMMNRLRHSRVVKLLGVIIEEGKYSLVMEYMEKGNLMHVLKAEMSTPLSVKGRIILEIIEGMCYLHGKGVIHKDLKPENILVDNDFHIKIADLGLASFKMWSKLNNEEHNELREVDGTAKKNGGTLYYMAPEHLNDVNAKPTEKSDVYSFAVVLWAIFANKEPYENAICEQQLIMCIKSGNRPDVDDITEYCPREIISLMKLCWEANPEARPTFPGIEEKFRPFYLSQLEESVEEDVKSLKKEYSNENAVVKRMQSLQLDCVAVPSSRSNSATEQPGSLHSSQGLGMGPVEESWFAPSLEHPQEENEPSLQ

The target of the assay is human RIP1 kinase domain (2-375) (Homo sapiens (Human), UniProt Q13546). In words: RIP1 kinase inhibition biochemical assay (Transcreener ADP, fluorescence polarization). The note with it: Ki app from tight-binding Morrison equation; 50 nM enzyme, 50 uM ATP, 2 hours incubation. The method, boiled down:
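Baculovirus-expressed human RIP1 kinase domain (2-375), 50 nM, incubated 2 h with compounds in pH 7.5 Hepes, 30 mM MgCl2, 50 uM ATP, 0.5% DMSO. ADP detected by Transcreener fluorescence-polarization tracer displacement; Ki^app from Morrison tight-binding fit.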
Background: Polarisation of emitted light reports the rotation of a fluorescent probe.
The molecule `O=S(=O)(c1nc2n(n1)[C@H](c1ccccc1)C[C@@H]2F)[C@H]1CCC1(F)F` [Example 172, (5S,7S)-7-fluoro-5-phenyl-2-[(1S)-2,2-difluorocyclobutyl]sulfonyl-6,7-dihydro-5H-pyrrolo[1,2-b][1,2,4]triazole] gave a Ki of 6 nM. Turning to `[O-][S+](c1nc2n(n1)C(c1cc(F)cc(F)c1)CC2)C(F)F` (stereo not drawn) [Example 176, 2-(Difluoromethylsulfinyl)-5-(3,5-difluorophenyl)-6,7-dihydro-5H-pyrrolo[1,2-b][1,2,4]triazole], the Ki was determined as 110 nM. `[O-][S+](CC(F)(F)F)c1nc2n(n1)C(c1ccccc1)CC2` (stereo not drawn) [Example 177, 5-Phenyl-2-(2,2,2-trifluoroethylsulfinyl)-6,7-dihydro-5H-pyrrolo[1,2-b][1,2,4]triazole] had a Ki of 57 nM. Molecule `O=S(=O)(c1nc2n(n1)[C@H](c1cccc(Cl)c1)C[C@@H]2F)C1CC1` [Example 203, (5S,7S)-5-(3-chlorophenyl)-2-cyclopropylsulfonyl-7-fluoro-6,7-dihydro-5H-pyrrolo[1,2-b][1,2,4]triazole] registered a Ki of 39 nM. In turn, `O=S(=O)(c1nc2n(n1)[C@H](c1cccc(F)c1F)C[C@@H]2F)[C@H]1C[C@H](F)C1` [Example 204, (5S,7S)-5-(2,3-difluorophenyl)-7-fluoro-2-trans-(3-fluorocyclobutyl)sulfonyl-6,7-dihydro-5H-pyrrolo[1,2-b][1,2,4]triazole] had a Ki of 16 nM.

`O=S(=O)(c1nc2n(n1)[C@H](c1cccc(Cl)c1F)C[C@@H]2F)[C@@H]1C[C@H]1F` [Example 208, (5S,7S)-5-(3-chloro-2-fluoro-phenyl)-7-fluoro-2-[(1R,2R)-2-fluorocyclopropyl]sulfonyl-6,7-dihydro-5H-pyrrolo[1,2-b][1,2,4]triazole] gave a Ki of 7 nM. Molecule `N#C[C@H]1C[C@@H]1S(=O)(=O)c1nc2n(n1)[C@H](c1ccccc1)C[C@@H]2F` [Example 209, (1R,2S)-2-[[(5S,7S)-7-fluoro-5-phenyl-6,7-dihydro-5H-pyrrolo[1,2-b][1,2,4]triazol-2-yl]sulfonyl]cyclopropanecarbonitrile] returned a Ki of less than 5 nM. `N#C[C@H]1C[C@@H](S(=O)(=O)c2nc3n(n2)[C@H](c2ccccc2)C[C@@H]3F)C1` [Example 210, Cis-3-[[(5S,7S)-7-fluoro-5-phenyl-6,7-dihydro-5H-pyrrolo[1,2-b][1,2,4]triazol-2-yl]sulfonyl]cyclobutanecarbonitrile] yielded a Ki of 55 nM.

On to `N#C[C@H]1C[C@H](S(=O)(=O)c2nc3n(n2)[C@H](c2ccccc2)C[C@@H]3F)C1` [Example 211, trans-3-[[(5S,7S)-7-Fluoro-5-phenyl-6,7-dihydro-5H-pyrrolo[1,2-b][1,2,4]triazol-2-yl]sulfonyl]cyclobutanecarbonitrile], for which the Ki is 12 nM. In turn, `N#C[C@@H]1C[C@H]1S(=O)(=O)c1nc2n(n1)[C@H](c1ccccc1)C[C@@H]2F` [Example 212, (1S,2R)-2-[[(5S,7S)-7-fluoro-5-phenyl-6,7-dihydro-5H-pyrrolo[1,2-b][1,2,4]triazol-2-yl]sulfonyl]cyclopropanecarbonitrile] yielded a Ki of 11 nM. `O=S(=O)(c1nc2n(n1)[C@H](c1ccccc1)C[C@@H]2F)[C@H]1C[C@H](OC(F)F)C1` [Example 213, (5S,7S)-2-trans-[3-(difluoromethoxy)cyclobutyl]sulfonyl-7-fluoro-5-phenyl-6,7-dihydro-5H-pyrrolo[1,2-b][1,2,4]triazole] gave a Ki of 6 nM.

Molecule `O=S(=O)(c1nc2n(n1)[C@H](c1cccc(Cl)c1F)C[C@@H]2F)[C@H]1C[C@@H]1F` [Example 219, (5S,7S)-5-(3-chloro-2-fluoro-phenyl)-7-fluoro-2-[(1S,2S)-2-fluorocyclopropyl]sulfonyl-6,7-dihydro-5H-pyrrolo[1,2-b][1,2,4]triazole] displayed a Ki of 25 nM.
